Source: publication PMC12257510, “Structure-Guided Design of a KMT9 Inhibitor Prodrug with Cellular Activity” (Journal of Medicinal Chemistry, 2025)

How the values were obtained:
KMT9 = molecular target: T1, KMT9 (Homo sapiens, UniProt Q9Y5N5); test: Microscale thermophoresis (MST) binding assay
T1 sequence (Q9Y5N5 1-214): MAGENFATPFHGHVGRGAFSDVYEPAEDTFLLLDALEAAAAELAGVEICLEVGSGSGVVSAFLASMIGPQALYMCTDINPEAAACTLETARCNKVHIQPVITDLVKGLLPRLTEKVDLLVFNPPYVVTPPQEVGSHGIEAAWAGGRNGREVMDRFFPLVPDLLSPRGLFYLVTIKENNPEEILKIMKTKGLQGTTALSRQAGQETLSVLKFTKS
T1 sequence (Q9UI30 1-125 partner): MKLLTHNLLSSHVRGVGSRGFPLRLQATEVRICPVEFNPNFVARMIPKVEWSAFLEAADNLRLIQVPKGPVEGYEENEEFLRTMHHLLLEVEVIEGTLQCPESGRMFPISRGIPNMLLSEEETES
Protocol: To determine the binding affinity of the compound and KMT9, microscale thermophoresis (MST) analysis was performed with a NanoTemper Monolith NT.115 instrument (NanoTemper Technologies GmbH). KMT9 was labeled with a RED-Tris-NTA labeling kit (NanoTemper Technologies GmbH) based on the manufacturer’s instructions. Buffer including 25 mM HEPES (pH 7.5), 100 mM NaCl, 1 mM DTT and 0.05% Tween was used for the reaction buffer. Varying concentrations of compounds were titrated against His-tag labeled KMT9 proteins (20 nM). Samples were loaded into standard Capillaries (NanoTemper Technologies GmbH) and MST measurements were performed using 40% MST power and 100% LED power. For each set of binding experiments, MST measurement was carried out with Binding Affinity module in MO. Control program under Nano-RED excitation. Data sets were processed with the MO.Affinity Analysis software (NanoTemper Technologies GmbH).

Caco-2 cells = test: Cell proliferation assay (X-Celligence), Caco-2; type: cell-based; details: Xcelligence, vs DMSO
Protocol: Cell proliferation was determined using the X-Celligence RTCA system (Roche). For real-time recording of SW480, Caco-2 cell proliferation, 5000 cells/well were seeded in 16 well E-plates (Roche). […] Cell indices were automatically recorded every 15 min. Relative velocities represent the change of the cell index over time. The sequences of the siRNAs (Stealth RNAi siRNAs; Life Technologies) used in the experiments have been previously described.

HepG2 cells = test: Cell proliferation assay, HepG2; type: cell-based, human; details: vs DMSO
KMT5A = molecular target: T2, KMT5A (Homo sapiens, UniProt Q9NQR1); test: CETSA in HepG2 cells, KMT5A; type: cell-based; set-up: KMT5A upon treatment with compound 8 compared to DMSO; endogenous in cells; host or cells: HepG2
T2 sequence (Q9NQR1 1-393): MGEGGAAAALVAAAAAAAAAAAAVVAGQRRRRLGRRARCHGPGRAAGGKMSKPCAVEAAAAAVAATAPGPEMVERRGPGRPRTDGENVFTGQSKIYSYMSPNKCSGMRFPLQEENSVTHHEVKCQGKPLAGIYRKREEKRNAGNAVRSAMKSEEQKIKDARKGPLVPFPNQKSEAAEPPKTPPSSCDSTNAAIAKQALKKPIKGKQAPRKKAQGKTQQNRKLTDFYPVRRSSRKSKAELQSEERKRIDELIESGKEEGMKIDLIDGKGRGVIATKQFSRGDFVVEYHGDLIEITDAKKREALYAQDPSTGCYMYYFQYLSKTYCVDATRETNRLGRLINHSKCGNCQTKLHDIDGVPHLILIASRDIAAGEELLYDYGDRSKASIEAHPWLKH
Protocol: (§1) For whole cell CETSA, the cells were incubated with 10/15 μM of compound 7b/8/8-N for 18 h. Then, cells were washed with cell culture medium, detached from the surface using trypsin, washed with PBS and the number of cells was determined. Cell concentration was adjusted to 3.6 × 10^7 cells/mL using in PBS with Complete (w/o EDTA, Roche) protease inhibitor. Then, cells were frozen in liquid nitrogen and thawed at 25 °C three times, before being divided in 16 aliquots. Each aliquot was heated to a defined temperature between 40 and 70 °C in a PCR cycler (16 well gradient, 55 °C ± 15). After 3 min incubation, aliquots were snap frozen in liquid nitrogen and thawed at 25 °C. Cell lysates were then centrifuged at 20,000 × g , 4 °C for 20 min. Supernatant were mixed with 5× loading buffer, heated to 70 °C for 5 min and analyzed by Western blotting essentially as previously described. For the CETSA performed with cell lysates, cells were directly harvested and lysed as described above. […]
(§2) Figure S5. […] Representative Western blots (D) and quantification (E) showing increased melting temperatures (ΔT m) of endogenous KMT9a upon treatment with compound 8 compared to DMSO. […] Representative Western blots (F) and quantification (G) showing no obvious shifting melting temperatures (ΔT m) of endogenous KMT5A upon treatment with compound 8 compared to DMSO. […]

KMT9a = molecular target: T3, KMT9a (Homo sapiens, UniProt Q9Y5N5); test: CETSA in HepG2 cells, KMT9; type: cell-based; set-up: prodrug compound 8 can target endogenous KMT9; endogenous in cells; host or cells: HepG2; details: vs DMSO
T3 sequence (Q9Y5N5 1-214): T1 sequence (Q9Y5N5 1-214)
T3 sequence (Q9UI30 1-125 partner): T1 sequence (Q9UI30 1-125 partner)
Protocol: as §1, §2

CCOC(=O)[C@@H](N)CCN(CCCNCCc1ccc(Oc2ccc(Cl)cc2)c(F)c1)C[C@H]1C[C@@H](n2ccc3c(NC)ncnc32)[C@H](O)[C@@H]1O [compound 8, Ethyl (S)-2-amino-4-((3-((4-(4-chlorophenoxy)-3-fluorophenethyl)amino)propyl) (((1R,2R,3S,4R)-2,3-dihydroxy-4-(4-(methylamino)-7H-pyrrolo[2,3-d]pyrimidin-7-yl)cyclopentyl)methyl)amino)butanoate]
Decrease of binding affinity compared to compound 7b (KMT9; Kd ratio vs compound 7b): more than 10,000 fold
Kd (KMT9; MST, binding to KMT9, read-out: Kd): > 400 µM
Proliferation of Caco-2 cells (Caco-2 cells): strongly suppressed proliferation
Proliferation of HepG2 cells (HepG2 cells): did not affect cell proliferation
ΔTm at 15 µM (KMT5A): 0.1 °C
ΔTm at 15 µM (KMT9a): 8 °C
